Experimental findings from ChEMBL document CHEMBL1137475, “Design, synthesis, and docking studies of new 1,3,4-thiadiazole-2-thione derivatives with carbonic anhydrase inhibitory activity” (Bioorg Med Chem, 2007) are described below.

Some targets named below: Carbonic anhydrase 1 (Homo sapiens, UniProt P00915); Carbonic anhydrase 2 (Homo sapiens, UniProt P00918); Carbonic anhydrase 9 (Homo sapiens, UniProt Q16790).

Chain of Carbonic anhydrase 1 (P00915 whole entry): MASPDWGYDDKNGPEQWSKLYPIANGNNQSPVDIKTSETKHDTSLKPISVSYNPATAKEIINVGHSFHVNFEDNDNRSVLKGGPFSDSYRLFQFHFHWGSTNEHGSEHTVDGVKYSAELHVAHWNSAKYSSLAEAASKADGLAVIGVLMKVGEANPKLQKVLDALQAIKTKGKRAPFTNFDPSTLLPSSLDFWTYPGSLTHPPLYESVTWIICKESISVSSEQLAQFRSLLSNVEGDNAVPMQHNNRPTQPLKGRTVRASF

For the compound `O=C(N/N=C/c1ccccc1[N+](=O)[O-])Nc1n[nH]c(=S)s1`, the figures for the Ki on Carbonic anhydrase 1, on Carbonic anhydrase 2 and at Carbonic anhydrase 9 were 223 µM, 433 µM and 24 µM, respectively. Turning to `COc1ccc(/C=N/NC(=O)Nc2n[nH]c(=S)s2)cc1`, the inhibition constant Ki (usually the equilibrium dissociation constant of an inhibitor or competing ligand from its target) at Carbonic anhydrase 2 came out at 350 µM; on Carbonic anhydrase 9, 24 µM.

Consider `O=C(N/N=C/c1ccccc1)Nc1n[nH]c(=S)s1`, for which the values for the inhibition constant (Ki) at Carbonic anhydrase 2 and at Carbonic anhydrase 9 were 354 µM and 23 µM, respectively. On the same counts, the results for `COc1cc(/C=N/NC(=O)Nc2n[nH]c(=S)s2)ccc1O` are 386 µM and 26 µM. `O=C(N/N=C/c1cccc(Br)c1)Nc1n[nH]c(=S)s1`: the inhibitory constant (Ki) worked out at 236 µM on Carbonic anhydrase 2 and 10.1 µM at Carbonic anhydrase 9. On the same counts, the results for `O=C(N/N=C/c1ccc(Br)cc1)Nc1n[nH]c(=S)s1` are 360 µM and 22 µM. For the compound `CN(C)c1ccccc1/C=N/NC(=O)Nc1n[nH]c(=S)s1`, the figures for the inhibition constant (Ki) at Carbonic anhydrase 1 and on Carbonic anhydrase 9 were 125 µM and 3.35 µM, respectively. As to `C/C(=N\NC(=O)Nc1n[nH]c(=S)s1)c1ccc(Br)cc1`, the affinity on Carbonic anhydrase 9, expressed as Ki, was 6.85 µM. Same read-out and setting: next, `C/C(=N\NC(=O)Nc1n[nH]c(=S)s1)c1ccc([N+](=O)[O-])cc1`: 7.54 µM; `O=C(N/N=C/c1ccco1)Nc1n[nH]c(=S)s1`: 5.75 µM.

As for `C/C(=N\NC(=O)Nc1n[nH]c(=S)s1)c1ccccc1`, on Carbonic anhydrase 9, the Ki is 7.44 µM. Still for that read-out and setting: then `C/C(=N\NC(=O)Nc1n[nH]c(=S)s1)c1ccc(C)cc1`, with 149 µM. Turning to `C/C(=N\NC(=O)Nc1n[nH]c(=S)s1)c1ccc(O)cc1`, the inhibitory constant (Ki) was 350 µM at Carbonic anhydrase 2 and 21 µM on Carbonic anhydrase 9. Take `O=C(NN=C(c1ccccc1)c1ccccc1)Nc1n[nH]c(=S)s1`: the affinity at Carbonic anhydrase 9, expressed as Ki, was 8.43 µM. With `COc1ccc(/C(C)=N/NC(=O)Nc2n[nH]c(=S)s2)cc1`, the Ki on Carbonic anhydrase 2 was 346 µM; on Carbonic anhydrase 9, 20 µM.

In the case of `O=C(NN=C1C(=O)Nc2ccc(Br)cc21)Nc1nnc(S)s1`, the Ki on Carbonic anhydrase 9 stood at 7.18 µM.

Consider `O=C(NN=C1C(=O)Nc2ccc([N+](=O)[O-])cc21)Nc1nnc(S)s1`, for which, on Carbonic anhydrase 9, the affinity corresponds to a Ki of 1.25 µM. Compared with the last compound, the Ki is about 5.7-fold lower. The same measure, in the same setting: next, `NNC(=O)Nc1n[nH]c(=S)s1`: 9.3 µM; `O=C(N/N=C/c1ccc([N+](=O)[O-])cc1)Nc1n[nH]c(=S)s1`: 10 µM. Consider `C/C(=N\NC(=O)Nc1n[nH]c(=S)s1)c1ccc(Cl)cc1`, for which the Ki at Carbonic anhydrase 1 stood at 144 µM; on Carbonic anhydrase 9, 8.55 µM. Consider `O=C(N/N=C1\C(=O)Nc2ccccc21)Nc1n[nH]c(=S)s1`, for which the affinity on Carbonic anhydrase 9, expressed as Ki, was 9.4 µM. As to `O=C(N/N=C/c1ccccc1Cl)Nc1n[nH]c(=S)s1`, the results for the Ki on Carbonic anhydrase 2 and at Carbonic anhydrase 9 were 412 µM and 29 µM, respectively.

For the compound `O=C(N/N=C/c1ccc(Cl)cc1)Nc1n[nH]c(=S)s1`, affinity at Carbonic anhydrase 9 was put at a Ki of 118 µM. `O=C(N/N=C/c1ccc(F)cc1)Nc1n[nH]c(=S)s1`: affinity at Carbonic anhydrase 9 was put at a Ki of 7.53 µM. Consider `COc1cccc(/C=N/NC(=O)Nc2n[nH]c(=S)s2)c1`, for which affinity at Carbonic anhydrase 9 was put at a Ki of 7.13 µM. Same read-out and setting: next, `O=C(N/N=C/c1cccnc1)Nc1n[nH]c(=S)s1`: 5.05 µM.
